Reference: publication PMC10703885 (Cell Death & Disease, 2023)
pIC50: −log10 of the molar value. Read-outs that look alike come from different tables or passages of the source.

How the values were obtained:
HCT116 cells [1] = experiment: CCK-8 cell viability assay; type: cell-based; settings: for pIC50: Homo sapiens
Description: (§1) The cells were cultured in 96-well plates at a density of 5 × 10^3 cells/well. Cell viability was assessed with CCK-8 Kit at indicated time post-treatment according to the manufacturer’s instructions. To estimate the viability of the cells, the absorbance of 450 nm (OD450) was measured with a Microplate Reader (BIO-TEK, Inc., Winooski, VT, United States). The IC50 value was calculated by GraphPad Prism 8.0 (San Diego, CA, United States) software.

[2] = Body weight of xenograft mice; type: in vivo, BALB/c nude mice; settings: 10 mg/kg/d ip over 21 days
Description: (§2) Male BALB/c nude mice (5–6 weeks) were purchased from the Jiesijie Experimental Animal Co. Ltd (Shanghai, China). All mice were maintained under SPF conditions and at constant temperature (25 °C) and relative humidity (65%) with a 12 h light/dark cycle. HCT116 cells (1 × 10^6) were inoculated into 6–7 weeks-old mice subcutaneously. Tumor volumes were evaluated by calipers and calculated using the standard formula: volume = length × width^2 × 0.5. Once tumor volume exceeded approximately 100 mm^3. […] Tumor volume was measured every 2 days. The protocols for animal care and euthanasia were approved by the Institutional Animal Care and Use Committee of Shanghai Ocean University (Shanghai, China).

HT29 cells [3] = experiment: CCK-8 cell viability assay; type: cell-based; settings: Homo sapiens, HT-29, 72 h
Description: as §1

[4] = tested on: normal renal epithelial 293T cells; experiment: CCK-8 cell viability assay (normal cells); type: cell-based; settings: low concentration of HR488B (0.1-1 μM), 72 h
Description: as §1

HCT116 xenograft = HCT116 xenograft model in nude mice; type: in vivo, BALB/c nude mice
Description: as §2

HCT116 cells [5] = experiment: Colony formation assay; type: cell-based; settings: HCT116, 0.2, 0.5 and 1 μM, 14 days
Description: (§3) The culture medium was refreshed every other day. Cells were then continuously incubated in a new fresh medium for 10–14 days, the colonies were fixed with methanol for 15 min, stained with 0.5% crystal violet for 15 min, and photographed. Colonies were manually counted using ImageJ software.

HT29 cells [6] = experiment: Colony formation assay; type: cell-based; settings: HT29, 0.2, 0.5 and 1 μM, 14 days
Description: as §3

[7] = tested on: acetylated H3/H4 protein in HCT116 cells; experiment: Western blot of acetylated H3/H4; type: cell-based; settings: HCT116, 0.2, 0.5 and 1 μM, 24 h, compared with SAHA 1 μM
Description: (§4) Western blot analysis was performed as in our previous reports. The cells were lysed in RIPA buffer with a complete protease inhibitor cocktail for 10 min on ice followed by centrifugation at 4 °C. The concentration of proteins was determined by the BCA Protein Kit (TIANGEN, Shanghai, China). Equal amounts of total proteins were resuspended in loading buffer, boiled at 100 °C for 5 min, and separated by 10–15% […] gel electrophoresis (SDS-PAGE). Proteins were transferred onto PVDF membranes (Merck Millipore, #IPFL00010, Germany), then the membranes were blocked with 5% non-fat dry milk, and the membranes were incubated with indicated primary antibodies diluted in BSA buffer, overnight at 4 °C. The membranes were washed three times in TBST followed by 1 h incubation with secondary antibodies conjugated with horseradish peroxidase (HRP) at room temperature. Then the membranes were washed before enhanced chemiluminescence. Immunoblots were visualized with the Bio-Rad ChemiDoc XRS system. Quantification was directly performed on the blot using the Image Lab software.

[8] = tested on: acetylated H3/H4 protein in HT29 cells; experiment: Western blot of acetylated H3/H4; type: cell-based; settings: HT29, 0.2, 0.5 and 1 μM, 24 h, compared with SAHA 1 μM
Description: as §4

SMILES: O=C(CCCCCCC(=O)Nc1ccccc1)NO [SAHA, reference compound]
- pIC50 (HCT116 cells [1]; HCT-116, 72 h): 5.67
- body weight of mice [2]: did not decrease notably

SMILES: COc1ccc(N(Cc2nc(-c3ccccc3Cl)cs2)C(=O)CCCCCC(=O)NO)cc1 [HR488B]
- inhibitory effect on cell viability (in-house HDACi library screen) (HCT116 cells [1]; HCT116 cells, 2.5 μM, 72 h, CCK-8): optimum inhibitory effect
- pIC50 (HCT116 cells [1]; HCT-116, HCT116 cells, 72 h, CCK-8, read-out: IC50): 6.77
- pIC50 (HT29 cells [3]): 6.23
- cellular toxicity of 293T cells [4]: did not observe any significant cellular toxicity
- average tumor weight (HCT116 xenograft; 10 mg/kg ip, compared with control and SAHA-treated group): obviously lower
- tumor volume (HCT116 xenograft; 10 mg/kg/d ip over 21 days, compared with control group and SAHA treatment group): marked reduction in tumor volume
- body weight of mice [2]: did not decrease notably
- number and size of colonies (HCT116 cells [5]): obviously reduced the number and size of the colonies
- number and size of colonies (HT29 cells [6]): obviously reduced the number and size of the colonies
- acetylation of H3 and H4 [7]: significantly increased the acetylation of H3 and H4 in a dose-dependent manner
- acetylation of H3 and H4 [8]: significantly increased the acetylation of H3 and H4 in a dose-dependent manner
